Assay results as given in patent publication US11311538B2, “Compositions and methods for targeting cancers” (YALE UNIVERSITY, priority 2018, dated 2022).

Key:
[1] = test system: U2OS DR-GFP cells; assay: U2OS DR-GFP HR assay; assay type: cell-based; conditions: for suppression of HR, DR-GFP assay: metabolite added to cell culture medium, 24 h (FIG. 3A)
[2] = test system: KDM4A and KDM4B; assay: Western blot of histone trimethylation (KDM4A/B activity) in YUNK1 cells; assay type: cell-based, human; conditions: increasing doses, 24 h (FIGS. 7E-7F)
Experimental: Western Blot analyses. Western blot analysis of protein levels was conducted by loading 30 μg of whole cell lysate onto a 4-20% polyacrylamide gel. Total protein was transferred to a nitrocellulose membrane. After blocking with 5% milk, membranes were incubated with primary antibodies. Antibodies used were: Rabbit monoclonal anti-Fumarase (D9C5,Cell Signaling Technologies) 1:1000 in 5% BSA, mouse monoclonal anti-SDHB (21A11AE7, Abcam) 1:1000 in % 5 milk, mouse monoclonal anti-Vinculin (SPM227, Abcam) 1:1000 in 5% milk, rabbit polyclonal anti-Histone 3 Lysine 36 trimethyl (9050, Abcam) 1:500 in 5% BSA, anti-Histone 3 Lysine 9 trimethyl (D4W1U, Cell Signaling Technologies) 1:1000 in 5% BSA, mouse monoclonal anti-Beta Actin (60008, Protein Tech) 1:5000 5% milk, rabbit Polyclonal anti-Histone H3 (ab1791, Abcam 1:5000 5% BSA), rabbit Polyclonal anti-PAR (4336-BPC-100, Trevigen) 1:5000 5% BSA, mouse monoclonal anti-GAPDH (60004 Protein Tech) 1:5000 5% milk, mouse monoclonal anti-BRCA2 (ab1, Millipore, 1:1000 5% Milk), mouse monoclonal anti-BRCA1 (D-9, Santa Cruz, 1:200 5% milk), mouse monoclonal anti-RAD51(14B4 Novus bio, 1:1000 5% milk). Patient sample blots were reprobed. Reprobed blots were stripped with Restore Plus Stripping Buffer (Thermo Fischer) and re-blocked with 5% milk prior to reprobing. Blots were tested to ensure all residual detection reagents were removed. Dual Color Precision Plus Protein standard was used as a molecular weight standard for western blots. Cell Culture. YUNK1 cells were generated in culture from uninvolved cortical renal tissue from a patient undergoing a radical nephrectomy for kidney cancer. […] YUNK1 was immortalized with a lentiviral vector containing SV40 Large T antigen (Addgene plasmid #22298). Lentiviral production was performed using HEK293FT (ATCC) using plasmids pMDLg/pRRE, pRSV-Rev, pCMV-VSG-G (Addgene #12251, 12253, and 8454). YUNK1 cells were maintained in DMEM+10% FBS+1% Pen/Strep. HEK293FT cells (ATCC) were maintained in DMEM+10% FBS+1% Pen/Strep. After lentiviral infections with TRIPZ-shRNA or GIPZ lentiviruses, cells were maintained in DMEM+10% FBS+1% Pen/Strep+2 μg/mL Puromycin. For dox inducible shRNAs, expression was induced with 2 μg/mL doxycycline. Doxycycline induced knockdown was monitored by western blot as well as by RFP fluorescence from the internal and dox-inducible reporter on the TRIPZ construct. U2OS DR-GFP cells were maintained in DMEM+10% FBS+1% Pen/Strep. UOK 262 and UOK 268 HLRCC cells are previously described in Yang, et al., 2010, Cancer Gent. Cytogent. 196:45-55; Yang, et al., 205, Cancer Genet. 205:377-390. They were obtained courtesy of W. M. Linehan and were maintained in DMEM+10% FBS+1% Pen/Strep+1 mM Sodium-Pyruvate. NCCFH1 cells were maintained in DMEM+10% FBS+1% Pen/Strep+1 mM Sodium-Pyruvate. […]

[3] = test system: UOK 268; assay: Neutral comet assay in UOK 268 HLRCC cells; assay type: cell-based, human; conditions: for levels of DNA DSBs after exogenous metabolite: FH-deficient UOK 268 cells, 24 h (FIG. 3H)
[4] = test system: UOK 262; assay: Neutral comet assay in UOK 262 HLRCC cells; assay type: cell-based, human; conditions: for levels of DNA DSBs after exogenous metabolite: FH-deficient UOK 262 cells, 24 h (FIG. 3H)
[5] = test system: HEK293FT shSDHB / shFH / shCTRL cells; assay: Clonogenic survival assay, DNA damaging agents, SDHB or FH knockdown cells; assay type: cell-based, human; conditions: SDHB or FH knockdown cells compared to control shRNA
Experimental: (§1) Western Blot analyses. Western blot analysis of protein levels was conducted by loading 30 μg of whole cell lysate onto a 4-20% polyacrylamide gel. Total protein was transferred to a nitrocellulose membrane. After blocking with 5% milk, membranes were incubated with primary antibodies. Antibodies used were: Rabbit monoclonal anti-Fumarase (D9C5,Cell Signaling Technologies) 1:1000 in 5% BSA, mouse monoclonal anti-SDHB (21A11AE7, Abcam) 1:1000 in % 5 milk, mouse monoclonal anti-Vinculin (SPM227, Abcam) 1:1000 in 5% milk, rabbit polyclonal anti-Histone 3 Lysine 36 trimethyl (9050, Abcam) 1:500 in 5% BSA, anti-Histone 3 Lysine 9 trimethyl (D4W1U, Cell Signaling Technologies) 1:1000 in 5% BSA, mouse monoclonal anti-Beta Actin (60008, Protein Tech) 1:5000 5% milk, rabbit Polyclonal anti-Histone H3 (ab1791, Abcam 1:5000 5% BSA), rabbit Polyclonal anti-PAR (4336-BPC-100, Trevigen) 1:5000 5% BSA, mouse monoclonal anti-GAPDH (60004 Protein Tech) 1:5000 5% milk, mouse monoclonal anti-BRCA2 (ab1, Millipore, 1:1000 5% Milk), mouse monoclonal anti-BRCA1 (D-9, Santa Cruz, 1:200 5% milk), mouse monoclonal anti-RAD51(14B4 Novus bio, 1:1000 5% milk). Patient sample blots were reprobed. […] Doxycycline induced knockdown was monitored by western blot as well as by RFP fluorescence from the internal and dox-inducible reporter on the TRIPZ construct. […]

[6] = test system: UOK 262; assay: Clonogenic survival assay in cell lines of renal origin; assay type: cell-based, human; conditions: FIG. 4C (BMN-673), FIG. 8J (mitomycin C)
[7] = test system: HEK293FT and YUNK1 cells; assay: Clonogenic survival assay, PARP inhibitors, knockdown or metabolite-treated cells; assay type: cell-based, human
[8] = test system: YUNK1 cells; assay: Immunofluorescence foci assay in YUNK1 cells; assay type: cell-based, human
Experimental: as §1

[9] = test system: HEK293FT cells; assay: Immunofluorescence foci assay in HEK293FT cells; assay type: cell-based, human; conditions: metabolite added to culture media (FIGS. 3E-3G)
Experimental: as §1

## CCOC(=O)/C=C/C(=O)O [monoethyl-fumarate]
[1]
  suppression of HR, DR-GFP assay: sufficient to suppress HR in a dose-dependent manner

## O=C(O)/C=C/C(=O)O [fumarate]
[2]
  H3K9me3 levels: dose-dependent increase
  H3L36me3 levels: dose-dependent increase
[3]
  levels of DNA DSBs after exogenous metabolite: no further effect
[4]
  levels of DNA DSBs after exogenous metabolite: no further effect

## CO[C@@]12[C@H](COC(N)=O)C3=C(C(=O)C(C)=C(N)C3=O)N1C[C@@H]1N[C@@H]12 [mitomycin C]
[5]
  clonogenic survival in response to DNA damaging agent: substantially reduced survival
[6]
  sensitivity of UOK 262 relative to FH-proficient cell lines of renal origin, clonogenic survival: markedly more sensitive

## COC(=O)CCC(=O)C(=O)OC [αKG, dimethyl-α-ketoglutarate]
[1]; co-treatment with dimethyl-succinate or dimethyl-fumarate (FIG. 3L)
  rescue of HR defect induced by succinate or fumarate, DR-GFP assay: rescued
[3]; FH deficient UOK 268 cells, 2 mM dimethyl-α-ketoglutarate (FIG. 3J)
  rescue of elevated DSB phenotype (comet assay): rescued the phenotype
[4]; FH deficient UOK 262 cells, 2 mM dimethyl-α-ketoglutarate (FIG. 3J)
  rescue of elevated DSB phenotype (comet assay): rescued the phenotype

## N.N.[Cl][Pt][Cl] [cisplatin]
[5]
  clonogenic survival in response to DNA damaging agent: substantially reduced survival

## O=C(c1cc(Cc2n[nH]c(=O)c3ccccc23)ccc1F)N1CCN(C(=O)C2CC2)CC1 [olaparib]
[7]; knockdown of SDHB and FH or exogenous dimethyl-fumarate or succinate (FIGS. 4A-4B, 8E-8I)
  sensitivity to the PARP inhibitor, clonogenic survival: dramatic sensitivity

## O=C(O)CCC(=O)O [succinate]
[1]
  suppression of HR, DR-GFP assay: sufficient to suppress HR in a dose-dependent manner
[2]
  H3K9me3 levels: dose-dependent increase
  H3L36me3 levels: dose-dependent increase
[8]; 24 h (FIGS. 6I-6J)
  γH2AX foci: Increases
[8]; 24 h (FIGS. 6K-6L)
  p53BP1 foci: Increases
[3]
  levels of DNA DSBs after exogenous metabolite: no further effect
[9]
  p53BP1 foci: Increases
  γH2AX foci: Increases
[7]; metabolite added to culture media (2 mM succinate; 30 or 60 μM dimethyl-fumarate)
  induction of sensitivity to PARP inhibitors olaparib and BMN-673 by exogenous metabolite: induced dramatic sensitivity
[4]
  levels of DNA DSBs after exogenous metabolite: no further effect

## COC(=O)CCC(=O)OC [dimethyl-succinate]
[1]
  suppression of HR, DR-GFP assay: sufficient to suppress HR in a dose-dependent manner

## CCOC(=O)CCC(=O)O [monoethyl-succinate]
[1]
  suppression of HR, DR-GFP assay: sufficient to suppress HR in a dose-dependent manner
